Measurements: ChEMBL document CHEMBL2176973, “Synthesis and SAR Studies of Fused Oxadiazines as γ-Secretase Modulators for Treatment of Alzheimer's Disease” (ACS Med Chem Lett, 2012)
Active and inactive are the calls of the source. No cut-off for these calls is given here.

How the values were obtained:
[1] = Plasma concentration in rat at 10 mg/kg, po after 3 hrs; type: ADME, organism-based; set-up: dose 10 mg/kg, route oral
[2] = Drug level in rat brain at 10 mg/kg, po after 3 hrs; type: ADME, organism-based; set-up: dose 10 mg/kg, route oral; settings: read-out: Drug uptake
[3] = Ratio of drug level in brain to plasma rat at 10 mg/kg, po after 6 hrs; type: ADME, organism-based; set-up: dose 10 mg/kg, route oral; settings: read-out: BPR
[4] = Drug level in rat brain at 10 mg/kg, po after 6 hrs; type: ADME, organism-based; set-up: dose 10 mg/kg, route oral; settings: read-out: Drug uptake
[5] = AUC (0 to 6 hrs) in rat plasma at 10 mg/kg, po; type: ADME, organism-based; set-up: time < 6 hr, dose 10 mg/kg, route oral
Rattus norvegicus [6] = experiment: Antialzheimer's activity in rat assessed as reduction of amyloid-beta-42 level in CSF at 10 mg/kg, po after 3 hrs by AlphaLISA amyloid assay; type: functional
[7] = molecular target: T1, Gamma-secretase (Homo sapiens) (UniProt Q96BI3+Q9NZ42+Q8WW43+P49768+Q92542+P49810); experiment: Modulation of gamma-secretase expressed in HEK293 cells co-expressing APPsw-lon assessed as reduction of total amyloid beta/amyloid-beta-42 ratio by sandwich immunoassay; type: cell-based
Gamma-secretase = experiment: Modulation of gamma-secretase expressed in HEK293 cells co-expressing APPsw-lon assessed as reduction of amyloid-beta-42 level by sandwich immunoassay; type: cell-based, Homo sapiens
Rattus norvegicus [8] = species: Rattus norvegicus; experiment: Toxicity in rat assessed as biomarker changes; type: organism-based; settings: in vivo
Rattus norvegicus [9] = species: Rattus norvegicus; experiment: Toxicity in rat assessed as Notch-related side effects; type: organism-based; settings: in vivo
Canis familiaris = species: Canis familiaris; experiment: Cardiotoxicity in dog assessed as effect on QTc intervals; type: toxicity, organism-based, Canis lupus familiaris; settings: in vivo
[10] = Activity at p-glycoprotein
Caco-2 = experiment: Permeability across human Caco2 cells; type: ADME, cell-based
Rattus norvegicus [11] = experiment: Antialzheimer's activity in po dosed rat assessed as reduction of amyloid-beta-42 level in CSF after 3 hrs by AlphaLISA amyloid assay; type: functional, organism-based
[12] = molecular target: T1, Gamma-secretase (Homo sapiens); experiment: Modulation of gamma-secretase-mediated Notch processing expressed in HEK293 cells co-expressing human Notch1 protein up to 50 uM; type: cell-based
[13] = Clearance in rat; type: ADME, organism-based; settings: in vivo
[14] = Volume of distribution at steady state in rat; type: ADME, organism-based; settings: in vivo, read-out: Vdss
[15] = Half life in rat; type: ADME, organism-based; settings: in vivo
[16] = Oral bioavailability in rat; type: ADME, organism-based; settings: in vivo
hERG (KCNH2) = hERG (KCNH2) (Homo sapiens, UniProt Q12809); experiment: Inhibition of human ERG at 10 uM
[17] = molecular target: T2, Nuclear receptor subfamily 1 group I member 2 (Homo sapiens, UniProt O75469); experiment: Induction of PXR
T2 sequence (O75469 whole entry): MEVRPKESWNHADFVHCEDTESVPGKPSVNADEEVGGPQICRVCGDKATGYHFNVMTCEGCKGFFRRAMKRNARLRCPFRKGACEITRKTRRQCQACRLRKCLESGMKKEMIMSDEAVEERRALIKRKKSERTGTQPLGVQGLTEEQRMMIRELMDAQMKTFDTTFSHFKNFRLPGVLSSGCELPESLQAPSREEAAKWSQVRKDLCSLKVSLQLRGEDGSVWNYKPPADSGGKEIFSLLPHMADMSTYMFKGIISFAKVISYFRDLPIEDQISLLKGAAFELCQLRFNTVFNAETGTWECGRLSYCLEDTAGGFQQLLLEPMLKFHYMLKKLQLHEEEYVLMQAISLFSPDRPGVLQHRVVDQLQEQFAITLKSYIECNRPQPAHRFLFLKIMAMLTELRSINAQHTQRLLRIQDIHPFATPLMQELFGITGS

[18] = Inhibition of CYP450; type: ADME

Sequence of hERG (KCNH2) (Q12809 whole entry): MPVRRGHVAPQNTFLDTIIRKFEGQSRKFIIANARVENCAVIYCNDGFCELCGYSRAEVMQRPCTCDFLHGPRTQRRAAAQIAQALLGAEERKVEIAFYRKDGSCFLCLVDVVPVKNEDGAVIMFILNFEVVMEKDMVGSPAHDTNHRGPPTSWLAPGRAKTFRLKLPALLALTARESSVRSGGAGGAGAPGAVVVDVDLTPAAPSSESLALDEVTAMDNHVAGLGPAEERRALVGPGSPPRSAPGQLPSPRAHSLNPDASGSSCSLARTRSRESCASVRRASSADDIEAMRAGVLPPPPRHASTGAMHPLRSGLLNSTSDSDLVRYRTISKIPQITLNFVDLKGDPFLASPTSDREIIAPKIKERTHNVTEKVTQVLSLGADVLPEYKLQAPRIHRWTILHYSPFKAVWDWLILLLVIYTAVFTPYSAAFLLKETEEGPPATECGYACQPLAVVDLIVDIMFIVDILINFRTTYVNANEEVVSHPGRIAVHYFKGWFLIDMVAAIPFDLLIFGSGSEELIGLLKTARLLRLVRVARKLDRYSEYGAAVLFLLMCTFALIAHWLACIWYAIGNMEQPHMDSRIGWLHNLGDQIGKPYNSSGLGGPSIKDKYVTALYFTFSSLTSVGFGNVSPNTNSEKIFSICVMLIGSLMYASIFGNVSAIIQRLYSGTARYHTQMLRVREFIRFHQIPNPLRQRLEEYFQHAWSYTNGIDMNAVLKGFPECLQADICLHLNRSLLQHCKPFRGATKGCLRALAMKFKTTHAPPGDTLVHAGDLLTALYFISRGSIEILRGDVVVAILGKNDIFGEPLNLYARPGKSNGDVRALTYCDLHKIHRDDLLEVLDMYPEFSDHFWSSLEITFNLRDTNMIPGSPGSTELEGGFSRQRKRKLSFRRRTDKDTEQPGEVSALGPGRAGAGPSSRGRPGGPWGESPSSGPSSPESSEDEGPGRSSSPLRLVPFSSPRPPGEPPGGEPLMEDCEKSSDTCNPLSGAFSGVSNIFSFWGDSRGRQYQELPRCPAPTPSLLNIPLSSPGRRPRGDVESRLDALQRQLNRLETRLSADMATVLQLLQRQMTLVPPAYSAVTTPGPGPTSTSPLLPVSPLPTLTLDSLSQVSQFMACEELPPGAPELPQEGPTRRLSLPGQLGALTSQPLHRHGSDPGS

| Compound | Ratio [7] | IC50 (Gamma-secretase) [nM] | further results |
| --- | --- | --- | --- |
| COc1cc(/C=C2\O[C@@H](C)CN3C2=NOC[C@@H]3c2cc(F)c(F)c(F)c2)ccc1-n1cnc(C)c1 | 320 | 46 |  |
| COc1cc(/C=C2\CCCN3C2=NOCC3(C)c2ccc(F)cc2)ccc1-n1cnc(C)c1 (racemic) | 69 | 230 |  |
| COc1cc(/C=C2\CCCN3CC(c4cnccn4)ON=C23)ccc1-n1cnc(C)c1 (racemic) | 2 | 9000 |  |
| COc1cc(/C=C2\CCCN3C(=O)C(c4cc(F)cc(F)c4)ON=C23)ccc1-n1cnc(C)c1 (racemic) | 18 | 1100 |  |
| COc1cc(/C=C2\CCCN3C2=NOC[C@@H]3C2CCOCC2)ccc1-n1cnc(C)c1 | 11 | 1900 |  |
| COc1cc(/C=C2\CCCN3CC(CO[Si](c4ccccc4)(c4ccccc4)C(C)(C)C)ON=C23)ccc1-n1cnc(C)c1 (racemic) | 80 | 56 |  |
| COc1cc(/C=C2\CCCN3C2=NOC3(CO)c2ccc(F)cc2)ccc1-n1cnc(C)c1 (stereo not drawn) | 289 | 75 |  |
| COc1cc(/C=C2\CCCN3C2=NOC3(C)c2ccc(F)cc2)ccc1-n1cnc(C)c1 (stereo not drawn) | 237 | 58 |  |
| COc1cc(/C=C2\CCCN3C2=NOCC3(CO)c2ccc(F)cc2)ccc1-n1cnc(C)c1 (racemic) | 2 | 13300 |  |
| COc1cc(/C=C2\CCCN3CC(c4nccn4C)ON=C23)ccc1-n1cnc(C)c1 (racemic) | 3 | 6700 |  |
| COc1cc(/C=C2\CCCN3C2=NOCC32CCOc3ccc(F)cc32)ccc1-n1cnc(C)c1 (racemic) | 50 | 400 |  |
| COc1cc(/C=C2\CCCN3C2=NO[C@]3(CO)c2ccc(F)cc2)ccc1-n1cnc(C)c1 | 488 | 29 |  |
| COc1cc(/C=C2\CCCN3C2=NOC32CCOc3ccc(F)cc32)ccc1-n1cnc(C)c1 (stereo not drawn) | 223 | 58 |  |
| COc1cc(/C=C2\CCCN3CC(CO)ON=C23)ccc1-n1cnc(C)c1 (racemic) | 4 | 5400 |  |
| COc1cc(/C=C2\O[C@@H](C)CN3C2=NOC[C@@H]3c2cc(F)cc(F)c2)ccc1-n1cnc(C)c1 | 550 | 35 |  |
| COc1cc(/C=C2\O[C@H](C)CN3C2=NOC[C@@H]3c2cc(F)cc(F)c2)ccc1-n1cnc(C)c1 | 1220 | 16 |  |
| COc1cc(/C=C2\O[C@H](C)CN3C2=NOC[C@@H]3c2cc(F)c(F)c(F)c2)ccc1-n1cnc(C)c1 | 1170 | 11 | inhibition in vivo at 10 mg/kg (Rattus norvegicus [6]): 60% |
| COc1cc(/C=C2\CCCN3CC(C(O)c4cc(F)cc(F)c4)ON=C23)ccc1-n1cnc(C)c1 (racemic) | 265 | 76 |  |
| COc1cc(/C=C2\CCCN3C[C@H](c4cc(F)c(F)c(F)c4)ON=C23)ccc1-n1cnc(C)c1 | 328 | 48 | Activity [17]: Not Active; inhibition at 10 µM (hERG (KCNH2)): 83%; inhibition (INH) [18]: Not Active; Kp at 6 h [3]: 1; concentration at 6 h [4]: 1880 ng/g; AUC(0-t) at 6 h [5]: 24.3 µM·h; inhibition in vivo at 10 mg/kg (Rattus norvegicus [6]): 45% |

Now from value to compound, other results behind:

| Ratio [7] | IC50 (Gamma-secretase) [nM] | Compound | further results |
| --- | --- | --- | --- |
| 385 | 37 | COc1cc(/C=C2\CCCN3C2=NOC[C@@H]3c2ccc(F)cc2)ccc1-n1cnc(C)c1 | concentration at 3 h [1]: 6.7 µM; concentration at 3 h [2]: 7.7 µM; Kp at 6 h [3]: 0.8; concentration at 6 h [4]: 2850 ng/g; AUC(0-t) at 6 h [5]: 86.5 µM·h; inhibition in vivo at 10 mg/kg (Rattus norvegicus [6]): 53% |
| 5 | 3700 | COc1cc(/C=C2\CCCN3C2=NOC[C@@H]3CN2CCOCC2)ccc1-n1cnc(C)c1 |  |
| 210 | 87 | COc1cc(/C=C2\CCCN3C2=NOC[C@@H]3c2ccccc2)ccc1-n1cnc(C)c1 | concentration at 3 h [1]: 6.2 µM; concentration at 3 h [2]: 2.8 µM; Kp at 6 h [3]: 0.9; concentration at 6 h [4]: 539 ng/g; AUC(0-t) at 6 h [5]: 17.6 µM·h; inhibition in vivo at 10 mg/kg (Rattus norvegicus [6]): 39% |
| 149 | 73 | COc1cc(/C=C2\CCCN3C2=NOC[C@@H]3CC(C)C)ccc1-n1cnc(C)c1 |  |
| 7 | 3100 | COc1cc(/C=C2\CCCN3CCON=C23)ccc1-n1cnc(C)c1 |  |
| 120 | 100 | COc1cc(/C=C2\CCCN3C2=NOC[C@@H]3COCc2ccccc2)ccc1-n1cnc(C)c1 |  |
| 459 | 44 | COc1cc(/C=C2\CCCN3C2=NOC[C@@H]3c2cc(F)c(OC)c(F)c2)ccc1-n1cnc(C)c1 | concentration at 3 h [1]: 6.3 µM; Kp at 6 h [3]: 1.1; concentration at 6 h [4]: 268 ng/g; AUC(0-t) at 6 h [5]: 22.7 µM·h; inhibition in vivo at 10 mg/kg (Rattus norvegicus [6]): 26% |
| 80 | 250 | COc1cc(/C=C2\CCCN3CC(COCc4ccccc4)ON=C23)ccc1-n1cnc(C)c1 (racemic) |  |
| 162 | 120 | COc1cc(/C=C2\CCCN3C2=NOC[C@@H]3C(C)(C)C)ccc1-n1cnc(C)c1 |  |
| 3 | 6400 | CCc1csc(C[C@H]2CON=C3/C(=C/c4ccc(-n5cnc(C)c5)c(OC)c4)CCCN32)n1 |  |
| 13 | 1500 | COc1cc(/C=C2\CCCN3C2=NOC[C@@H]3CC(=O)N2CCCCC2)ccc1-n1cnc(C)c1 |  |
| 1 | 19000 | COc1cc(/C=C2\CCCN3C2=NOC[C@@H]3CS(C)(=O)=O)ccc1-n1cnc(C)c1 |  |
| 507 | 39 | COc1cc(/C=C2\CCCN3C2=NOC[C@@H]3c2cc(F)cc(Cl)c2)ccc1-n1cnc(C)c1 | concentration at 3 h [1]: 7.2 µM; Kp at 6 h [3]: 1.1; concentration at 6 h [4]: 1340 ng/g; AUC(0-t) at 6 h [5]: 24.6 µM·h; inhibition in vivo at 10 mg/kg (Rattus norvegicus [6]): 62% |
| 147 | 140 | COc1cc(/C=C2\CCCN3CC(COc4ccccc4)ON=C23)ccc1-n1cnc(C)c1 (racemic) |  |
| 8 | 2500 | COc1cc(/C=C2\CCCN3C(=O)CON=C23)ccc1-n1cnc(C)c1 |  |
| 158 | 130 | COc1cc(/C=C2\CCCN3CC(c4cccc5ccccc45)ON=C23)ccc1-n1cnc(C)c1 (racemic) |  |
| 607 | 33 | COc1cc(/C=C2\CCCN3C2=NOC[C@@H]3c2cc(F)c(F)c(F)c2)ccc1-n1cnc(C)c1 | Activity (Rattus norvegicus [8]): Non-toxic; Activity (Rattus norvegicus [9]): Non-toxic; Activity (Canis familiaris): Non-toxic; Activity [10]: inactive; permeability (Caco-2): permeable; inhibition (Rattus norvegicus [11]): Dose-dependent effect; Activity [12]: inactive; clearance [13]: 1.4 mL/min/kg; Vd [14]: 0.4 L/kg; half-life [15]: 3.5 h; bioavailability [16]: 100%; concentration at 3 h [1]: 10.7 µM; inhibition at 10 µM (hERG (KCNH2)): 76%; Kp at 6 h [3]: 0.4; concentration at 6 h [4]: 2910 ng/g; AUC(0-t) at 6 h [5]: 87.4 µM·h; inhibition in vivo at 10 mg/kg (Rattus norvegicus [6]): 62% |
| 49 | 300 | COc1cc(/C=C2\CCCN3C2=NOCC3C(O)c2ccc(Cl)cc2)ccc1-n1cnc(C)c1 (stereo not drawn) |  |
| 6 | 3300 | COc1cc(/C=C2\CCCN3C2=NOC[C@@H]3CO)ccc1-n1cnc(C)c1 |  |
| 34 | 530 | COc1cc(/C=C2\CCCN3C2=NOC[C@@H]3C(C)C)ccc1-n1cnc(C)c1 |  |
| 241 | 83 | COc1cc(/C=C2\CCCN3CC(Cc4ccccc4)ON=C23)ccc1-n1cnc(C)c1 (racemic) |  |
| 91 | 210 | COc1cc(/C=C2\CCCN3CC(c4ccccc4)ON=C23)ccc1-n1cnc(C)c1 (racemic) |  |
| 238 | 80 | COc1cc(/C=C2\CCCN3C2=NOC[C@@H]3Cc2ccccc2)ccc1-n1cnc(C)c1 |  |
| 24 | 820 | COc1cc(/C=C2\CCCN3C2=NOC[C@@H]3CNC(=O)c2cccc(Cl)c2)ccc1-n1cnc(C)c1 |  |
